Tests used:
[1] = target: MAP kinase-interacting serine/threonine-protein kinase 2 (Homo sapiens) (UniProt Q9HBH9); experiment: MKNK2 (MNK2) Kinase screen; details: Compound concentration 1.0 uM
Rattus norvegicus = species on record: Rattus norvegicus; experiment: Protein Serine/Threonine Kinase, PKC, Non-Selective Eurofins-Panlabs enzyme assay; details: Compound concentration 10.0 uM
[2] = target: CDK9/cyclin T1 (Homo sapiens) (UniProt O60563+P50750); experiment: CDK9/cyclin T1 Kinase screen; format: protein-complex assay; details: Compound concentration 1.0 uM
[3] = target: T1, Inhibitor of nuclear factor kappa-B kinase subunit beta (Homo sapiens) (UniProt O14920); experiment: IKBKB (IKK beta) Kinase screen; details: Compound concentration 1.0 uM
T1 sequence (whole entry): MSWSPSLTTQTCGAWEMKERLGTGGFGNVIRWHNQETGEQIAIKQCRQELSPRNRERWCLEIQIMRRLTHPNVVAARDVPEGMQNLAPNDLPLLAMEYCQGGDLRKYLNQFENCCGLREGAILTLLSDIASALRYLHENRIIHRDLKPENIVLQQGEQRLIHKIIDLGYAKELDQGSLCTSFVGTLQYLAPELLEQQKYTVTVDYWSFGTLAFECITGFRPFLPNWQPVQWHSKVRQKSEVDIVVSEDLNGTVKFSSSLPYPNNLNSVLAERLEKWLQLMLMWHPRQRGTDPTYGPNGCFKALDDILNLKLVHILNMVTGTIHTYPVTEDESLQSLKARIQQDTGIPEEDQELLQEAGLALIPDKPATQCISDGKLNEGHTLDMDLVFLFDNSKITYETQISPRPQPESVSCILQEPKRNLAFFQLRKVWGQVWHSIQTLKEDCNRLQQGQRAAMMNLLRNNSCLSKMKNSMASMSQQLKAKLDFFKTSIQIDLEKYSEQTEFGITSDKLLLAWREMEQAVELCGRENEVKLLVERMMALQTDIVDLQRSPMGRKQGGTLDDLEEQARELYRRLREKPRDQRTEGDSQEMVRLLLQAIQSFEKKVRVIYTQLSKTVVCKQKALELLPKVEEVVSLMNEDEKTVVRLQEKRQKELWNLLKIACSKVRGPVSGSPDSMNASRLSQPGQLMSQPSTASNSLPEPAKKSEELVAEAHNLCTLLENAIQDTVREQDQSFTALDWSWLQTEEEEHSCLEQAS

[4] = target: Proto-oncogene tyrosine-protein kinase Src (Homo sapiens) (UniProt P12931); experiment: SRC Kinase screen; details: Compound concentration 1.0 uM
[5] = target: T2, Ephrin type-A receptor 8 (Homo sapiens) (UniProt P29322); experiment: EPHA8 Kinase screen; details: Compound concentration 1.0 uM
T2 sequence (whole entry): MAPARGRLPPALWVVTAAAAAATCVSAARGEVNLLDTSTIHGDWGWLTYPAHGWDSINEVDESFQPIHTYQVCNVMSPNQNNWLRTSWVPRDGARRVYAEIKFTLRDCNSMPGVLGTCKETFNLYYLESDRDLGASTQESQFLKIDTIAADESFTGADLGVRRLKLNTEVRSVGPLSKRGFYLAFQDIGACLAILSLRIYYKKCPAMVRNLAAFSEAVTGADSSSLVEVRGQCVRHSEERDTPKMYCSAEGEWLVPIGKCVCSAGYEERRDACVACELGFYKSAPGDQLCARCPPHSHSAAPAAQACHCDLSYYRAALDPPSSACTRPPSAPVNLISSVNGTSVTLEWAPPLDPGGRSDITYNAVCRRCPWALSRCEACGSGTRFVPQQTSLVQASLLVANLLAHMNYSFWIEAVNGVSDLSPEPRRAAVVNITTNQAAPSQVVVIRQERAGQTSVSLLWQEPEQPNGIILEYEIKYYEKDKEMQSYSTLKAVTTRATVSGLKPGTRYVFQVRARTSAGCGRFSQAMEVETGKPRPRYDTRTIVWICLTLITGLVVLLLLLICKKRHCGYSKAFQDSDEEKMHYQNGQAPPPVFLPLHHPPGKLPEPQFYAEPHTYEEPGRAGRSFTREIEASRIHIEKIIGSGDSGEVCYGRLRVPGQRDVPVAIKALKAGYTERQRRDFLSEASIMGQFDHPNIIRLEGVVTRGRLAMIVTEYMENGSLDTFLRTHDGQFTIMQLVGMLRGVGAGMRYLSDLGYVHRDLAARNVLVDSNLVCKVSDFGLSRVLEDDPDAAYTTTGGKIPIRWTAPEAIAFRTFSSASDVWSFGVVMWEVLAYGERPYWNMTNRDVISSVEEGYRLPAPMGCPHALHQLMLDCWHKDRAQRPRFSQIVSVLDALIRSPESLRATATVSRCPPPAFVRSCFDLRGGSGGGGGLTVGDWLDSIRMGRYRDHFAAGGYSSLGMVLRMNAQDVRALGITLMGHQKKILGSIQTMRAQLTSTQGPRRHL

[6] = target: Non-receptor tyrosine-protein kinase TYK2 (Homo sapiens) (UniProt P29597); experiment: TYK2 Kinase screen; details: Compound concentration 1.0 uM
[7] = target: Casein kinase II subunit alpha (Homo sapiens) (UniProt P68400); experiment: CSNK2A1 (CK2 alpha 1) Kinase screen; details: Compound concentration 1.0 uM
[8] = target: T3, Activin receptor type-1 (Homo sapiens) (UniProt Q04771); experiment: ACVR1 (ALK2) Kinase screen; details: Compound concentration 1.0 uM
T3 sequence (whole entry): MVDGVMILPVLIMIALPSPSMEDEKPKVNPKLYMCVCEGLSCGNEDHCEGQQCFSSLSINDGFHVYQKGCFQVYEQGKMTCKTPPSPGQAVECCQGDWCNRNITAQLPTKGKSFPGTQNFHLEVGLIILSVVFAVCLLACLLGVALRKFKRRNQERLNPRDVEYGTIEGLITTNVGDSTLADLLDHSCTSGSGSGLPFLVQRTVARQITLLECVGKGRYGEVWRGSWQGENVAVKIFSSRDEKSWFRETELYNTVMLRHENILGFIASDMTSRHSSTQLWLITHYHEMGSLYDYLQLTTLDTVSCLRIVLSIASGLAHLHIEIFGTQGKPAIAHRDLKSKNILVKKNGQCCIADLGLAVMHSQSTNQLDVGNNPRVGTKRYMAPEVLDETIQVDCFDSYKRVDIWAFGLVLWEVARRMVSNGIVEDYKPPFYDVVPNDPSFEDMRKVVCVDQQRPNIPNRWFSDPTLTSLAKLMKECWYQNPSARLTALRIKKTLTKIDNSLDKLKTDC

[9] = target: Vascular endothelial growth factor receptor 1 (Homo sapiens) (UniProt P17948); experiment: FLT1 (VEGFR1) Kinase screen; details: Compound concentration 1.0 uM

Measured: inhibition

Sequence of Proto-oncogene tyrosine-protein kinase Src (Homo sapiens) (P12931 2-536 limits assumed): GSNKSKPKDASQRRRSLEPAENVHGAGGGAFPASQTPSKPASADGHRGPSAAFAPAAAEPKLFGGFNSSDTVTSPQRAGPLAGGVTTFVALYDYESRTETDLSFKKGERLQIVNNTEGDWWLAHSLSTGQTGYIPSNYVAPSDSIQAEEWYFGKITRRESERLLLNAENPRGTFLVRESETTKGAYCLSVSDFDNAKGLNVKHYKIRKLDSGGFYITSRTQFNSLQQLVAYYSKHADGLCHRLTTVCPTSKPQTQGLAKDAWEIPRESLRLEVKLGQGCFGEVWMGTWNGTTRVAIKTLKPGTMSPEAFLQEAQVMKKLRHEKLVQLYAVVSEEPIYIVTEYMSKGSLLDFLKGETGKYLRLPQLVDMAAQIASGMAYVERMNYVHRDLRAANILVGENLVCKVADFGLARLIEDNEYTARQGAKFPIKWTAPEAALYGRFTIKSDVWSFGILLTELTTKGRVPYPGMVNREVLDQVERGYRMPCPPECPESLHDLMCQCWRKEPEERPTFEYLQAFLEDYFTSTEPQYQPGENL
Sequence of Vascular endothelial growth factor receptor 1 (Homo sapiens) (P17948 whole entry): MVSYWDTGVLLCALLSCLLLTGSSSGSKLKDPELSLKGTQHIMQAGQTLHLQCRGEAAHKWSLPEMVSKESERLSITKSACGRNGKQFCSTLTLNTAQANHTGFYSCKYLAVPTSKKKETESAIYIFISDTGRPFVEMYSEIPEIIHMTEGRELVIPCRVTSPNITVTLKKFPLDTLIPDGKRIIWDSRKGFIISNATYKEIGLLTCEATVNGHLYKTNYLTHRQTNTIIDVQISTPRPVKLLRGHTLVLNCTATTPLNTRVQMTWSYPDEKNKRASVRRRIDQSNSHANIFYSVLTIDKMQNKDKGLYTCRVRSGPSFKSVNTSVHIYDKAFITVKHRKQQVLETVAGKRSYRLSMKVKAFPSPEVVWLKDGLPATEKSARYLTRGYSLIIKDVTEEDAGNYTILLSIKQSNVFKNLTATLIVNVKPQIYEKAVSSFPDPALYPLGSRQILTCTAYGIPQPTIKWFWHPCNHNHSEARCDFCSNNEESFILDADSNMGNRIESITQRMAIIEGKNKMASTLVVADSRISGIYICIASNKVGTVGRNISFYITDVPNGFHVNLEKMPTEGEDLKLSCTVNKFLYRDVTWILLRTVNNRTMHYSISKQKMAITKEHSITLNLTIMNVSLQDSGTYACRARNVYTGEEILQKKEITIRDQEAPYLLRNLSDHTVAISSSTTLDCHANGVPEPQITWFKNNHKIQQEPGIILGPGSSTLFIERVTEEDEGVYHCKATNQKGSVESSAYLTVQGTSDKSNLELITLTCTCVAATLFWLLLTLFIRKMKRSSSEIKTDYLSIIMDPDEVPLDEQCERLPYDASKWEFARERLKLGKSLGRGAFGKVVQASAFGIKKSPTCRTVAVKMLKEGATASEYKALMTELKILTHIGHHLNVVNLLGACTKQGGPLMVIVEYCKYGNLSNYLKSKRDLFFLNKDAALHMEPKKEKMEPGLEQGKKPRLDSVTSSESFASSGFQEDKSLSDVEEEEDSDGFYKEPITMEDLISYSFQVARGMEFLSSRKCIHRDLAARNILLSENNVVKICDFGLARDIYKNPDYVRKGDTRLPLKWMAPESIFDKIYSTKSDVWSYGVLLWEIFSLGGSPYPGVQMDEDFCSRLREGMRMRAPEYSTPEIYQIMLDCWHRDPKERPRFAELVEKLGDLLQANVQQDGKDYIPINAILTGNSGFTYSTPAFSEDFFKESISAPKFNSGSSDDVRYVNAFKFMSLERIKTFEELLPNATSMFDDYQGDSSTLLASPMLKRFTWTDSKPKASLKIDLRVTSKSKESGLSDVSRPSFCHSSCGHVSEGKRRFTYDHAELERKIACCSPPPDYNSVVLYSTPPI
Sequence of MAP kinase-interacting serine/threonine-protein kinase 2 (Homo sapiens) (Q9HBH9 whole entry, looked up): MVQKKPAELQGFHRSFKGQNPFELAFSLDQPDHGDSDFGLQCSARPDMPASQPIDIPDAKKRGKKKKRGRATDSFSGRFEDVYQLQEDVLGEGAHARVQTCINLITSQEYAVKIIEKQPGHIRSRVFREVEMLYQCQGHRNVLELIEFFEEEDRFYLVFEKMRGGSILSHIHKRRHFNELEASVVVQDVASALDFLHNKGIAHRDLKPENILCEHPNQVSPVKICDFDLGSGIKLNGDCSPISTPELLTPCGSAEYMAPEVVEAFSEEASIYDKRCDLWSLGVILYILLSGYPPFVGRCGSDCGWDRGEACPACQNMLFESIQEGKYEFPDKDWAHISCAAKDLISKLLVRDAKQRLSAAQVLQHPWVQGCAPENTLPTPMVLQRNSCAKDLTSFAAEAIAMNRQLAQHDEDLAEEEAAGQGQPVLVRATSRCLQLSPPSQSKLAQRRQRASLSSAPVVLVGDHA
Sequence of Non-receptor tyrosine-protein kinase TYK2 (Homo sapiens) (P29597 whole entry): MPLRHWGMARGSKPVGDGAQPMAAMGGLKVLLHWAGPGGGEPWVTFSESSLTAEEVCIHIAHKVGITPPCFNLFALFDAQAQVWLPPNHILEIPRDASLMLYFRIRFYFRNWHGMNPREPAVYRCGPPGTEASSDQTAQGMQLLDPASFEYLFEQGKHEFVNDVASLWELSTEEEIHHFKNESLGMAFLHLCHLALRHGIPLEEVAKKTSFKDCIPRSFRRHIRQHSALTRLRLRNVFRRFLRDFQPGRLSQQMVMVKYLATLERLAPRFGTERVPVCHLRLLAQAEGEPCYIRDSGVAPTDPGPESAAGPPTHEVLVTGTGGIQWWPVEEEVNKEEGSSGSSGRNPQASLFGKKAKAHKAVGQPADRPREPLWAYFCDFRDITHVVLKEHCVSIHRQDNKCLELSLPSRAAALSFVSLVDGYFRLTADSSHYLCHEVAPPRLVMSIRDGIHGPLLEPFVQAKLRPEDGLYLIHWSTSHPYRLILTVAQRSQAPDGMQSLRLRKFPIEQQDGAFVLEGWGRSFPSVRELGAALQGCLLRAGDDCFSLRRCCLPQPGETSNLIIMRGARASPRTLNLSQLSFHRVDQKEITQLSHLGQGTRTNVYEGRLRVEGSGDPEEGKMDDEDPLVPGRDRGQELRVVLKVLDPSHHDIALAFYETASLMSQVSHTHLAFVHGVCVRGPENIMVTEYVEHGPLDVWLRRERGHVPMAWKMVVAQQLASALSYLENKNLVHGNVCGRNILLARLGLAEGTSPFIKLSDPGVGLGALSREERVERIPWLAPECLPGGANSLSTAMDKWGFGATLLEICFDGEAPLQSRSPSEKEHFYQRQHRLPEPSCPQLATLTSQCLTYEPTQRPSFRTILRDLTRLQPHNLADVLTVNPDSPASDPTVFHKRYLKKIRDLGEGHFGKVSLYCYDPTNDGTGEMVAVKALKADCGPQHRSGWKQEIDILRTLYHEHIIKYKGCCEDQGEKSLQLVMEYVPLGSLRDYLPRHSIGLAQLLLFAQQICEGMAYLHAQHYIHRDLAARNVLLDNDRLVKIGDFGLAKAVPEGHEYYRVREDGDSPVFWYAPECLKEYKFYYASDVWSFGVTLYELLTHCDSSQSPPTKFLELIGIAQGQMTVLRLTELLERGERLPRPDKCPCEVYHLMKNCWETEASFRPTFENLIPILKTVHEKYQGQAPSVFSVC
Sequence of Casein kinase II subunit alpha (Homo sapiens) (P68400 whole entry, looked up): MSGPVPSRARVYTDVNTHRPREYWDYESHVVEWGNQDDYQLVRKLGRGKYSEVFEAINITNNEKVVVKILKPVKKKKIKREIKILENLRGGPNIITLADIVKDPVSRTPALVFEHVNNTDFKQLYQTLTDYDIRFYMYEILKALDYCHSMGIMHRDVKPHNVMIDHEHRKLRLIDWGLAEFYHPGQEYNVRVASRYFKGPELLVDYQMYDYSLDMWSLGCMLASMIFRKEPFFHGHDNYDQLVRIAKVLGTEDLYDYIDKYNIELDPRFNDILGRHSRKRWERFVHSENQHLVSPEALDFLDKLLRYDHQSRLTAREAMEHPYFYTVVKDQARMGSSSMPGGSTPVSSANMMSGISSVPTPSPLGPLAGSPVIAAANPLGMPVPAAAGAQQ

C[C@@H]1CN(c2cc(-c3n[nH]c4ccc(OC5(C)CC5)cc34)ncn2)C[C@H](C)O1 [MLi-2]
inactive: [1] 9.35% | Rattus norvegicus 26% | [2] 11.3% | [3] -0.0171% | [4] 4.97% | [5] 7.44% | [6] 1.17% | [7] 3.5% | [8] 10.7% | [9] -1.02%

Source: ChEMBL document CHEMBL4507291 (2021)
